From patent US12419900B2, “Induction of synthetic lethality with epigenetic therapy” (The Johns Hopkins University, priority 2017, dated 2025)

Legend:
[1] = tested on: DU145 prostate cancer cells; assay: Alamar blue cell viability and growth, alisertib x decitabine dose matrix; format: cell-based; details: DU145; for Percent Growth Inhibition: Alisertib 0 nM
Method: DU145 prostate cancer cells and A549 lung cancer cells were treated with varying concentrations (0 nM, 10 nM, 50 nM, and 100 nM) of alisertib in addition to varying concentrations of decitabine (0 nM, 50 nM, 100 nM, and 250 nM). Representative data are shown in FIGS. 2A and 2B, as well as the Tables below. […] In each panel, a dose response of each drug alone and in combination was used in Alamar blue cell viability assays. […] Formal synergy analyses were performed using the Bliss independence score (where values greater than zero indicate greater than additive effect). […] The graph of FIG. 2A is a growth curve of the DU145 prostate cancer cells for the agents alone (decitabine and alisertib separately), a vehicle control, and the agents in combination (decitabine and alisertib together). […] Likewise, the graph of FIG. 2B is a growth curve of the A549 lung cancer cells for the agents alone (decitabine and alisertib separately), a vehicle control, and the agents in combination (decitabine and alisertib together). […] The synergy analysis of the combination of decitabine and alisertib was evaluated in a series of 18 cancer cell lines (9 prostate, 1 ovarian, 1 lung, 2 colon, 2 central nervous system, and 3 breast cancer cell lines) and 2 non-cancer cell models.

A549 lung cancer cells = assay: as above; format: cell-based; details: Alisertib 0 nM
Method: DU145 prostate cancer cells and A549 lung cancer cells were treated with varying concentrations (0 nM, 10 nM, 50 nM, and 100 nM) of alisertib in addition to varying concentrations of decitabine (0 nM, 50 nM, 100 nM, and 250 nM). Representative data are shown in FIGS. 2A and 2B, as well as the Tables below. […] Formal synergy analyses were performed using the Bliss independence score (where values greater than zero indicate greater than additive effect). […] The graph of FIG. 2A is a growth curve of the DU145 prostate cancer cells for the agents alone (decitabine and alisertib separately), a vehicle control, and the agents in combination (decitabine and alisertib together). […] Likewise, the graph of FIG. 2B is a growth curve of the A549 lung cancer cells for the agents alone (decitabine and alisertib separately), a vehicle control, and the agents in combination (decitabine and alisertib together). […] The synergy analysis of the combination of decitabine and alisertib was evaluated in a series of 18 cancer cell lines (9 prostate, 1 ovarian, 1 lung, 2 colon, 2 central nervous system, and 3 breast cancer cell lines) and 2 non-cancer cell models.

primary hepatocytes = assay: Cell viability and growth, alisertib x decitabine dose matrix; format: cell-based; details: Alisertib 0 nM
Method: The synergy analysis of the combination of decitabine and alisertib was evaluated in a series of 18 cancer cell lines (9 prostate, 1 ovarian, 1 lung, 2 colon, 2 central nervous system, and 3 breast cancer cell lines) and 2 non-cancer cell models. A final cumulative Bliss synergy score was calculated based on the sum of the synergy values from each of the 16 combinations of 0 nM, 10 nM, 50 nM, and 100 nM of alsertib together with 0 nM, 50 nM, 100 nM, and 250 nM of decitabine.

DU145 xenograft tumor = assay: In vivo xenograft study of DU145, decitabine and alisertib; parameters: species or system nude mice; details: for Fold Change in Tumor Size, Mean: DAC 0.75 mg/kg alone
Method: Using in vivo xenograft studies of the DU145 prostate cancer cell line, the effect was explored of the treatment of two dose levels of alisertib alone or in combination with decitabine using two different treatment time schedules over a period of seven weeks. First, nude mice were inoculated with DU145 cells that were allowed to incubate for 10-12 days to establish xenograft tumor. The inoculated mice were then treated concomitantly with both a high dose and a low dose of alisertib and decitabine in the first two weeks or primed with decitabine alone for two weeks followed by alisertib alone in the first cycle. The dose of decitabine was held constant at 0.75 mg/kg and given with either low-dose (15 mg/kg) or high-dose (25 mg/kg) alisertib, as indicated in FIG. 4. The cumulative number of doses of decitabine and alisertib was the same in all combination treatment arms in both schedules.

[2] = tested on: residual xenograft tumors; assay: KI-67 and Caspase 3A staining of residual xenograft tumors; format: in vivo, nude mice; details: decitabine pre-treatment experiment
From the text: The proliferative index and apoptotic fraction in residual xenograft tumors from the decitabine pre-treatment experiment was then examined. Sample cells from each of the vehicle control, decitabine pre-treatment alone, alisertib alone, and decitabine pretreatment in combination with alisertib were stained with either KI-67 or Caspase 3A.

Aurora Kinase A (AURKA) = assay: Western Blot in DU145 cells; format: cell-based; details: 100 nM decitabine, 100 nM alisertib
Method: (§1) Western Blot analyses for AURKA were performed on DU145 cell tissue sample treated with vehicle control; 100 nM alisertib alone; 100 nM decitabine alone; and 100 nM of decitabine in combination with 100 nM of alisertib.

DNMT3B = assay: Western Blot in DU145 cells; format: cell-based; details: 100 nM decitabine, 100 nM alisertib
Method: as §1, with “DNA methyltransferase enzymes comprise a family of enzymes including DNMT1, DNMT3A, and DNMT3B. […] In this study, Western” for “Western”, “DNMT3B” for “AURKA”

DNMT1 = assay: Protein levels in DU145 cells (data not shown); format: cell-based
Satellite 2 sequences = assay: Bisulfite genomic sequencing of repetitive elements; format: cell-based; details: DU145; vehicle control 45.09%
[3] = tested on: retinoic acid signaling pathway; assay: pRARE-luciferase reporter of retinoic acid signaling in PC-3 cells; format: cell-based, human; details: 72 hours; for RAR Reporter Activity, Average / RAR Reporter Activity, Trial 1 / RAR Reporter Activity, Trial 2 / RAR Reporter Activity, Trial 3 / RAR Reporter Activity, Trial 4 / RAR Reporter Activity, Trial 5 / RAR Reporter Activity, Trial 6: KCC-08 10 μM, isotretinoin 5 μM, vehicle average 1.00
Method: To determine whether MBD2 protein inhibitors triggered retinoic acid signaling pathway activation, KCC-08 was administered to PC-3 human prostate cancer cells transfected with a heterologous reporter plasmid responsive to the presence of retinoic acid signaling (pRARE-luciferase), and the cells were used to assess reactivation of the retinoic acid response signaling pathway. The cancer cells were treated with a vehicle control or KCC-08 (10 μM) both with and without isotretinoin (5 μM) for 72 hours, and then assayed for luciferase reporter production.

PC-3 cancer cells = assay: Clonogenic survival; format: cell-based, human; details: 72 hours treatment, colonies ten days later, vehicle control 100.00, 12-27 replicates
Method: To assay for cancer clonogenic survival, PC-3 cancer cells were seeded into 6-well plates at 5,000 cells/well and allowed to attach overnight. Next, the cells were treated for 72 hours with vehicle control or KCC-08, both with and without isotretinoin, washed three times with phosphate-buffered saline, and then placed back into complete growth medium. Ten days later, colonies founded by surviving cells were detected using crystal violet staining.

PC-3 xenograft tumors = assay: PC-3 xenograft growth suppression; format: in vivo, Male Fox1-nude mice; details: KCC-08 i.p. 1 then 0.5 mg/kg, isotretinoin oral 30 mg/kg
Method: For cancer xenograft growth suppression, one million human PC-3 prostate cancer cells were suspended in Matrigel and inoculated into the flanks of Male Fox1-nude mice provided by Jackson Laboratory (Bar Harbor, ME). When the resultant xenograft tumors were measurable two weeks later, the tumor-bearing mice were treated with KCC-08, given by intraperitoneal infection in saline for 5 of 7 days at 1 mg/kg for week 1 and then 0.5 mg/kg for 5 of 7 days for week 2. Isotretinoin was given by oral gavage in peanut oil at 30 mg/kg for the same 5 of 7 days as the KCC-08 for weeks 1 and 2. For week 3, isotretinoin was given by oral gavage in peanut oil at 30 mg/kg for 5 of 7 days, and KCC-08 was not administered. Tumors were measured 3 times a week for 3 weeks, and the volume was estimated by using the formula 4/3*Π*width*length*depth.

Structure (SMILES): Nc1ncn([C@H]2C[C@H](O)[C@@H](CO)O2)c(=O)n1 [decitabine, 5-aza-2′-deoxycytidine]
- Percent Growth Inhibition ([1]; DAC 50 nM): 0.04
- Percent Growth Inhibition ([1]; DAC 100 nM): 0.08
- Percent Growth Inhibition ([1]; DAC 250 nM): 0.77
- cell survival in tissue culture ([1]; low dose decitabine 100 nM): most of the cells survived
- Percent Growth Inhibition (A549 lung cancer cells; DAC 50 nM): 0.03
- Percent Growth Inhibition (A549 lung cancer cells; DAC 100 nM): 0
- Percent Growth Inhibition (A549 lung cancer cells; DAC 250 nM): 0.14
- Percent Growth Inhibition (primary hepatocytes; DAC 50 nM): 0.16
- Percent Growth Inhibition (primary hepatocytes; DAC 100 nM): 0.30
- Percent Growth Inhibition (primary hepatocytes; DAC 250 nM): 0.29
- Fold Change in Tumor Size, Mean (DU145 xenograft tumor; week 0): 1
- Fold Change in Tumor Size, Mean (DU145 xenograft tumor; week 1): 1.31
- Fold Change in Tumor Size, Mean (DU145 xenograft tumor; week 2): 1.90
- Fold Change in Tumor Size, Mean (DU145 xenograft tumor; week 3): 2.68
- Fold Change in Tumor Size, Mean (DU145 xenograft tumor; week 4): 3.81
- Fold Change in Tumor Size, Mean (DU145 xenograft tumor; week 5): 4.60
- Fold Change in Tumor Size, Mean (DU145 xenograft tumor; week 6): 5.10
- Fold Change in Tumor Size, Mean (DU145 xenograft tumor; week 7): 5.49
- tumor growth (FIG. 5A) (DU145 xenograft tumor; decitabine alone, alisertib high and low dose alone, combinations concurrent or primed, low and high dose alisertib): continued to grow at a significant rate
- xenograft tissue growth or survival compared to the vehicle control (DU145 xenograft tumor; single agent therapy at the doses tested (decitabine 0.75 mg/kg; alisertib 15 or 25 mg/kg)): did not significantly alter
- Caspase 3A staining (apoptosis) [2]: almost no alteration
- KI-67 staining (cell proliferation) [2]: almost no alteration
- AURKA protein levels (Aurora Kinase A (AURKA)): significantly induce
- DNMT3B levels (DNMT3B): did not significantly alter
- DNMT1 levels (DNMT1): significantly reduced
- percent of CpG Satellite 2 methylation (Satellite 2 sequences): 33.33%

Structure (SMILES): Cn1c2ccccc2n2cc(-c3ccc([N+](=O)[O-])cc3)nc12 [KCC-08]
- luciferase activity / retinoic acid signaling pathway activation ([3]; KCC-08 10 μM with or without isotretinoin 5 μM): enhanced
- RAR Reporter Activity, Average [3]: 2.24
- RAR Reporter Activity, Trial 1 [3]: 2.08
- RAR Reporter Activity, Trial 2 [3]: 2.31
- RAR Reporter Activity, Trial 3 [3]: 1.96
- RAR Reporter Activity, Trial 4 [3]: 2.46
- RAR Reporter Activity, Trial 5 [3]: 2.36
- RAR Reporter Activity, Trial 6 [3]: 2.28
- Clonogenic Survival Relative to Control, Average (PC-3 cancer cells): 96.86
- Percent average xenograft tumor volume relative to baseline, Average (PC-3 xenograft tumors; Day 1): 100%
- Percent average xenograft tumor volume relative to baseline, Average (PC-3 xenograft tumors; Day 4): 151.16%
- Percent average xenograft tumor volume relative to baseline, Average (PC-3 xenograft tumors; Day 8): 223.22%
- Percent average xenograft tumor volume relative to baseline, Average (PC-3 xenograft tumors; Day 11): 250.94%
- Percent average xenograft tumor volume relative to baseline, Average (PC-3 xenograft tumors; Day 15): 338.37%
- Percent average xenograft tumor volume relative to baseline, Average (PC-3 xenograft tumors; Day 18): 406.04%
- Percent average xenograft tumor volume relative to baseline, Average (PC-3 xenograft tumors; Day 22): 452.09%

Structure (SMILES): CC1=C(/C=C/C(C)=C/C=C/C(C)=C\C(=O)O)C(C)(C)CCC1 [Isotretinoin, isotretinoin]
- RAR Reporter Activity, Average [3]: 1.57
- RAR Reporter Activity, Trial 1 [3]: 1.66
- RAR Reporter Activity, Trial 2 [3]: 1.77
- RAR Reporter Activity, Trial 3 [3]: 1.62
- RAR Reporter Activity, Trial 4 [3]: 1.42
- RAR Reporter Activity, Trial 5 [3]: 1.47
- RAR Reporter Activity, Trial 6 [3]: 1.46
- Clonogenic Survival Relative to Control, Average (PC-3 cancer cells): 96.62
- Percent average xenograft tumor volume relative to baseline, Average (PC-3 xenograft tumors; Day 1): 100%
- Percent average xenograft tumor volume relative to baseline, Average (PC-3 xenograft tumors; Day 4): 161.09%
- Percent average xenograft tumor volume relative to baseline, Average (PC-3 xenograft tumors; Day 8): 238.81%
- Percent average xenograft tumor volume relative to baseline, Average (PC-3 xenograft tumors; Day 11): 315.81%
- Percent average xenograft tumor volume relative to baseline, Average (PC-3 xenograft tumors; Day 15): 394.27%
- Percent average xenograft tumor volume relative to baseline, Average (PC-3 xenograft tumors; Day 18): 488.75%
- Percent average xenograft tumor volume relative to baseline, Average (PC-3 xenograft tumors; Day 22): 522.19%
